Measured values published in patent US12540120B2, “Herbicidal compounds” (SYNGENTA CROP PROTECTION AG, priority 2019, dated 2026).

What was measured:
Type in all cases: in vivo
[1] = tested on: Ipomoea hederacea (IPOHE); assay: B2 Post-Emergence Efficacy—Test 2; conditions: post-emergence application, 250 g/ha, evaluated after 13 days (Test 2)
Description: (§1) B2 Post-Emergence Efficacy—Test 2 Seeds of a variety of test species are sown in standard soil in pots:—Solanum nigrum (SOLNI), Amaranthus retoflexus (AMARE), Setaria faberi (SETFA), Echinochloa crus-galli (ECHCG), Ipomoea hederacea (IPOHE), Lolium perenne (LOLPE). After 8 days cultivation (post-emergence) under controlled conditions in a glasshouse (at 24/16° C., day/night; 14 hours light; 65% humidity), the plants are sprayed with an aqueous spray solution derived from the formulation of the technical active ingredient in acetone/water (50:50) solution containing 0.5% Tween 20 (polyoxyethylene sorbitan monolaurate, CAS RN 9005-64-5). Compounds are applied at 250 g/ha. The test plants are then grown in a glasshouse under controlled conditions in a glasshouse (at 24/16° C., day/night; 14 hours light; 65% humidity) and watered twice daily. After 13 days, the test is evaluated for the percentage damage caused to the plant. The biological activities are assessed on a five point scale (5=80-100%; 4=60-79%; 3=40-59%; 2=20-39%; 1=0-19%). A blank value in the table is indicative that the compound was not tested on that species.

Lolium perenne (LOLPE) [2] = assay: B2 Post-Emergence Efficacy—Test 2; conditions: post-emergence application, 250 g/ha, evaluated after 13 days (Test 2)
Description: as §1

[3] = tested on: Echinochloa crus-galli (ECHCG); assay: B2 Post-Emergence Efficacy—Test 2; conditions: post-emergence application, 250 g/ha, evaluated after 13 days (Test 2)
Description: as §1

[4] = tested on: Amaranthus retoflexus (AMARE); assay: B2 Post-Emergence Efficacy—Test 2; conditions: post-emergence application, 250 g/ha, evaluated after 13 days (Test 2)
Description: as §1

Solanum nigrum (SOLNI) [5] = assay: B2 Post-Emergence Efficacy—Test 2; conditions: post-emergence application, 250 g/ha, evaluated after 13 days (Test 2)
Description: as §1

Setaria faberi (SETFA) [6] = assay: B2 Post-Emergence Efficacy—Test 2; conditions: post-emergence application, 250 g/ha, evaluated after 13 days (Test 2)
Description: as §1

[7] = tested on: Ipomoea hederacea (IPOHE); assay: B5 Pre-Emergence Efficacy—Test 2; design: key: 5-point scale: 5=80-100%, 4=60-79%, 3=40-59%, 2=20-39%, 1=0-19% damage; conditions: 250 g/ha, evaluated after 13 days
Description: (§2) B5 Pre-Emergence Efficacy—Test 2 Seeds of a variety of test species were sown in standard soil in pots: Solanum nigrum (SOLNI), Amaranthus retoflexus (AMARE), Setaria faberi (SETFA), Echinochloa crus-galli (ECHCG), Ipomoea hederacea (IPOHE), Lolium perenne (LOLPE). After cultivation for one day (pre-emergence) under controlled conditions in a glasshouse (at 24/16° C., day/night; 14 hours light; 65% humidity), the plants were sprayed with an aqueous spray solution derived from the formulation of the technical active ingredient in acetone/water (50:50) solution containing 0.5% Tween 20 (polyoxyethelyene sorbitan monolaurate, CAS RN 9005-64-5). Compounds are applied at 250 g/ha. The test plants were then grown in a glasshouse under controlled conditions (at 24/16° C., day/night; 14 hours light; 65% humidity) and watered twice daily. After 13 days, the test is evaluated for the percentage damage caused to the plant. The biological activities are assessed on a five point scale (5=80-100%; 4=60-79%; 3=40-59%; 2=20-39%; 1=0-19%). A blank value in the table is indicative that the compound was not tested on that species.

Lolium perenne (LOLPE) [8] = assay: B5 Pre-Emergence Efficacy—Test 2; design: key: 5-point scale: 5=80-100%, 4=60-79%, 3=40-59%, 2=20-39%, 1=0-19% damage; conditions: 250 g/ha, evaluated after 13 days
Description: as §2

[9] = tested on: Echinochloa crus-galli (ECHCG); assay: B5 Pre-Emergence Efficacy—Test 2; design: key: 5-point scale: 5=80-100%, 4=60-79%, 3=40-59%, 2=20-39%, 1=0-19% damage; conditions: 250 g/ha, evaluated after 13 days
Description: as §2

Setaria faberi (SETFA) [10] = assay: B5 Pre-Emergence Efficacy—Test 2; design: key: 5-point scale: 5=80-100%, 4=60-79%, 3=40-59%, 2=20-39%, 1=0-19% damage; conditions: 250 g/ha, evaluated after 13 days
Description: as §2

[11] = tested on: Amaranthus retoflexus (AMARE); assay: B5 Pre-Emergence Efficacy—Test 2; conditions: 250 g/ha, evaluated after 13 days
Description: as §2

Solanum nigrum (SOLNI) [12] = assay: B5 Pre-Emergence Efficacy—Test 2; conditions: 250 g/ha, evaluated after 13 days
Description: as §2

| SMILES | percentage damage caused to the plant, five point scale, IPOHE [1] | percentage damage caused to the plant, five point scale, LOLPE (Lolium perenne (LOLPE) [2]) | percentage damage caused to the plant, five point scale, ECHCG [3] | percentage damage caused to the plant, five point scale, AMARE [4] | percentage damage caused to the plant, five point scale, SOLNI (Solanum nigrum (SOLNI) [5]) | percentage damage caused to the plant, five point scale, SETFA (Setaria faberi (SETFA) [6]) | Control of weed species after pre-emergence application, IPOHE (percentage damage, five point scale) [7] | Control of weed species after pre-emergence application, LOLPE (percentage damage, five point scale) (Lolium perenne (LOLPE) [8]) | Control of weed species after pre-emergence application, ECHCG (percentage damage, five point scale) [9] | Control of weed species after pre-emergence application, SETFA (percentage damage, five point scale) (Setaria faberi (SETFA) [10]) | Control of weed species after pre-emergence application, AMARE (percentage damage, five point scale) [11] | Control of weed species after pre-emergence application, SOLNI (percentage damage, five point scale) (Solanum nigrum (SOLNI) [12]) |
| --- | --- | --- | --- | --- | --- | --- | --- | --- | --- | --- | --- | --- |
| CC(=O)Nc1ccc(CCc2c(Cl)ccc(F)c2-c2c(O)c(C)nn(C)c2=O)cc1 [Compound A-1.024] | 5 (5=80-100%) | 5 (5=80-100%) | 4 (4=60-79%) | 5 (5=80-100%) | 5 (5=80-100%) | 5 (5=80-100%) | 0 | 4 (4=60-79%) | 2 (2=20-39%) | 5 (5=80-100%) | 5 (5=80-100%) | 5 (5=80-100%) |
| Cc1nn(C)c(=O)c(-c2c(F)ccc(Cl)c2CCc2ccc(S(=O)(=O)N(C)C)cc2)c1O [Compound A-1.025] | 5 (5=80-100%) | 5 (5=80-100%) | 5 (5=80-100%) | 5 (5=80-100%) | 5 (5=80-100%) | 5 (5=80-100%) | 1 (1=0-19%) | 4 (4=60-79%) | 5 (5=80-100%) | 5 (5=80-100%) | 5 (5=80-100%) | 5 (5=80-100%) |
| Cc1nn(C)c(=O)c(-c2c(F)ccc(Cl)c2CCc2ccc(C(C)(C)C)cc2)c1O [Compound A-1.026] | 0 | 1 (1=0-19%) | 0 | 4 (4=60-79%) | 4 (4=60-79%) | 2 (2=20-39%) | 0 | 0 | 0 | 0 | 0 | 0 |
| Cc1nn(C)c(=O)c(-c2c(F)ccc(Cl)c2CCc2ccc(-c3ccccc3)cc2)c1O [Compound A-1.027, 4-[3-chloro-6-fluoro-2-[2-(4-phenylphenyl)ethyl]phenyl]-5-hydroxy-2,6-dimethyl-pyridazin-3-one] | 4 (4=60-79%) | 5 (5=80-100%) | 5 (5=80-100%) | 5 (5=80-100%) | 4 (4=60-79%) | 5 (5=80-100%) | 4 (4=60-79%) | 2 (2=20-39%) | 1 (1=0-19%) | 3 (3=40-59%) | 5 (5=80-100%) | 4 (4=60-79%) |
| CCN(C)C(=O)c1ccc(CCc2c(Cl)ccc(F)c2-c2c(O)c(C)nn(C)c2=O)cc1F [Compound A-1.028, 4-[2-[6-chloro-3-fluoro-2-(5-hydroxy-2,6-dimethyl-3-oxo-pyridazin-4-yl)phenyl]ethyl]-N-ethyl-2-fluoro-N-methyl-benzamide] | 5 (5=80-100%) | 5 (5=80-100%) | 5 (5=80-100%) | 5 (5=80-100%) | 5 (5=80-100%) | 5 (5=80-100%) | 5 (5=80-100%) | 5 (5=80-100%) | 4 (4=60-79%) | 5 (5=80-100%) | 5 (5=80-100%) | 5 (5=80-100%) |
| Cc1nn(C)c(=O)c(-c2c(F)ccc(Cl)c2CCc2ccccc2C#N)c1O [Compound A-1.029] | 5 (5=80-100%) | 4 (4=60-79%) | 2 (2=20-39%) | 4 (4=60-79%) | 5 (5=80-100%) | 4 (4=60-79%) | 1 (1=0-19%) | 2 (2=20-39%) | 5 (5=80-100%) | 1 (1=0-19%) | 3 (3=40-59%) | 5 (5=80-100%) |
